Measurements: patent publication US9452986B2, “6-heteroaryloxy- or 6-aryloxy-quinoline-2-carboxamides and method of use” (AbbVie Inc., priority 2014, dated 2016)
Like-named read-outs stand apart in the source and are kept apart here.

Experiments:
recombinant human Nav1.7 = recombinant human Nav1.7 (Homo sapiens (Human), UniProt Q15858); assay: FRET-based membrane potential assay, recombinant human sodium channel Nav1.7; assay type: cell-based; settings: read-out: FRET-Membrane Potential Nav1.7 IC50
recombinant human Nav1.7, sequence (Q15858 whole entry): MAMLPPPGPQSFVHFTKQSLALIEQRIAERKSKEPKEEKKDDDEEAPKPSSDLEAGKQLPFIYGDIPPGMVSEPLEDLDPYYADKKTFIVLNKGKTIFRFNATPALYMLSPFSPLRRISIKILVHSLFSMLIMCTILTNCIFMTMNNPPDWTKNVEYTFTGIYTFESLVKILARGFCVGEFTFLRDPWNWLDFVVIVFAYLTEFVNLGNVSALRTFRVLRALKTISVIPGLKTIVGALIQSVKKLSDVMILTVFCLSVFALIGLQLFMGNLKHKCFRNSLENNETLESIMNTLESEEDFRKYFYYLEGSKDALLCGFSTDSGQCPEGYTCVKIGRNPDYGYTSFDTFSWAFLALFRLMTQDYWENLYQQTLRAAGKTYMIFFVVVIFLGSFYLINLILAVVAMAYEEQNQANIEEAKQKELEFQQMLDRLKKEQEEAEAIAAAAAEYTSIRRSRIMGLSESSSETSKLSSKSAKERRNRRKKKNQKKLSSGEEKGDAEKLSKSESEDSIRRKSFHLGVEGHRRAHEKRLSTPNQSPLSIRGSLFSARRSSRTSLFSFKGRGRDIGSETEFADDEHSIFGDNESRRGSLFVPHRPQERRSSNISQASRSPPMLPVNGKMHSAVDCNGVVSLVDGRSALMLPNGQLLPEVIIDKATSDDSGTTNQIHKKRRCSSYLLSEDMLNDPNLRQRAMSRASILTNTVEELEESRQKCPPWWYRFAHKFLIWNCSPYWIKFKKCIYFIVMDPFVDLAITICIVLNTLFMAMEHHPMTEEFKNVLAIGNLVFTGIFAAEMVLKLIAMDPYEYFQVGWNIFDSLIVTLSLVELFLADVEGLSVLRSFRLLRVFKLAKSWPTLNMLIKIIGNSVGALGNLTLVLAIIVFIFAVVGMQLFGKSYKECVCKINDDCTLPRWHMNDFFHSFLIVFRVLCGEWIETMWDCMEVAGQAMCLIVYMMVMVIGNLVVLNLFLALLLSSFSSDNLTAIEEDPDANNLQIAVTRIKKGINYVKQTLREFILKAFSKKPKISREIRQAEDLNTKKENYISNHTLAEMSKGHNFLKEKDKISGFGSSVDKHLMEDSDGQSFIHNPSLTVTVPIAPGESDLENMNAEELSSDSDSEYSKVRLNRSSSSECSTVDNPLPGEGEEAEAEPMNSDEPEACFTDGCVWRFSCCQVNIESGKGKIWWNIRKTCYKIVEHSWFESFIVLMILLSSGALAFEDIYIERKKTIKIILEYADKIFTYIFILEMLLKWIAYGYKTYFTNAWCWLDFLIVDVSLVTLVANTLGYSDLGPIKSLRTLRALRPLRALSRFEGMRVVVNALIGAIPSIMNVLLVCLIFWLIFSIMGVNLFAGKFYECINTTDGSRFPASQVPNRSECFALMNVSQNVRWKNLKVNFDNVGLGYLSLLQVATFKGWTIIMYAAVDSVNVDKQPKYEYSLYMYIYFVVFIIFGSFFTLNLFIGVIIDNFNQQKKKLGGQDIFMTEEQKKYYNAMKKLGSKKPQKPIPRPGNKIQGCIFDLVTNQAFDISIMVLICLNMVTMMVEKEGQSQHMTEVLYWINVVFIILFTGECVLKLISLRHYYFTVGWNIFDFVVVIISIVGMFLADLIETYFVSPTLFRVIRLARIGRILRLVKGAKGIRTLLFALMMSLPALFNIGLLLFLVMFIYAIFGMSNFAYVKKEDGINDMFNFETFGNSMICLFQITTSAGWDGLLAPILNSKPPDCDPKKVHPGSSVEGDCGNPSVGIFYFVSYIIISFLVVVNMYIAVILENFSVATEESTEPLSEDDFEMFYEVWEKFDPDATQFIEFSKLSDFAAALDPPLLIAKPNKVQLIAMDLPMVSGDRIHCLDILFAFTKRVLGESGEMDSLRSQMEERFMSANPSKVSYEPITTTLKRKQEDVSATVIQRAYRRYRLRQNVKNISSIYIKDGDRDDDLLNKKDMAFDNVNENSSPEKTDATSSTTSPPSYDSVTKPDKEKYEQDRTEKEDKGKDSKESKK
Summary of the method: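 Channel activation used veratridine at its EC80, set by a dilution curve each experiment, together with Leiurus scorpion venom, added 3 min after compound. Membrane-potential ratio signals from FLIPR Tetra in HEPES-buffered HBSS were fitted to a four-parameter Hill equation for percent inhibition and IC50.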

osteoarthritic rats = assay: Osteoarthritic (OA) pain induced by sodium monoiodoacetate (MIA), hind limb grip force; assay type: in vivo, rat; settings: for inhibition in vivo at 30 mg/kg / inhibition in vivo at 10 mg/kg: Rattus norvegicus, 480 h, read-out: OA MPE; for inhibition in vivo at 10 mg/kg: OA dose 10 mg/kg
Summary of the method: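 Activity-induced pain was read as maximum compressive hind limb grip force, two sequential trials normalized to body weight, 20 days after intra-articular MIA (3 mg/rat) in male Sprague Dawley rats. Randomized, blinded dosing; effect expressed as return toward naïve-animal response relative to vehicle.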

[1] = system: spinal nerve ligated rats; assay: Rat spinal nerve ligation (SNL) model of neuropathic pain, paw withdrawal threshold; assay type: in vivo; settings: read-out: SNL MPE
Description: Rat Spinal Nerve Ligation (SNL) Model of Neuropathic Pain.
The male Sprague Dawley rats (Charles River Laboratories, Wilmington, Mass.), weighing 150-175 g at the time of surgery, were placed under isoflurane anesthesia and a 1.5 cm incision was made dorsal to the lumbosacral plexus. The paraspinal muscles (left side) were separated from the spinous processes, the left L5 and L6 spinal nerves isolated, and tightly ligated with 5-0 silk suture distal to the dorsal root ganglion. Care was taken to avoid ligating the L4 spinal nerve. Following spinal nerve ligation, a minimum of 7 days of recovery and no more than 3 weeks was allowed prior to the behavioral testing (mechanical sensitivity). Only rats with threshold scores ≦4.5 g were considered allodynic and utilized in pharmacological experiments.
Mechanical sensitivity was measured using calibrated von Frey filaments (Stoelting, Wood Dale, Ill.). […] The von Frey filaments were presented perpendicularly to the plantar surface of the selected hind paw, and then held in this position for approximately 8 seconds with enough force to cause a slight bend in the filament. Positive responses included an abrupt withdrawal of the hind paw from the stimulus, or flinching behavior immediately following removal of the stimulus. […] A percent maximal possible effect (% MPE) of testing compound was calculated according to the formula: (Log [compound−treated threshold]−Log [vehicle−treated threshold])/(Log [maximum threshold]−Log [vehicle−treated threshold])×100%, where the maximum threshold was equal to 15 g.
The animals were housed in Association for Assessment and Accreditation of Laboratory Animal Care (AAALAC) approved facilities at AbbVie Inc. in a temperature-regulated environment under a controlled 12-hour light-dark cycle, with lights on at 6:00 a.m. Food and water were available ad libitum at all times except during testing. All testing was done following procedures outlined in protocols approved by AbbVie Inc.s' Institutional Animal Care and Use Committee.

recombinant human Nav1.8 = recombinant human Nav1.8 (Homo sapiens (Human), UniProt Q9Y5Y9); assay: FRET-based membrane potential assay, recombinant human sodium channel Nav1.8; assay type: cell-based
recombinant human Nav1.8, sequence (Q9Y5Y9 whole entry): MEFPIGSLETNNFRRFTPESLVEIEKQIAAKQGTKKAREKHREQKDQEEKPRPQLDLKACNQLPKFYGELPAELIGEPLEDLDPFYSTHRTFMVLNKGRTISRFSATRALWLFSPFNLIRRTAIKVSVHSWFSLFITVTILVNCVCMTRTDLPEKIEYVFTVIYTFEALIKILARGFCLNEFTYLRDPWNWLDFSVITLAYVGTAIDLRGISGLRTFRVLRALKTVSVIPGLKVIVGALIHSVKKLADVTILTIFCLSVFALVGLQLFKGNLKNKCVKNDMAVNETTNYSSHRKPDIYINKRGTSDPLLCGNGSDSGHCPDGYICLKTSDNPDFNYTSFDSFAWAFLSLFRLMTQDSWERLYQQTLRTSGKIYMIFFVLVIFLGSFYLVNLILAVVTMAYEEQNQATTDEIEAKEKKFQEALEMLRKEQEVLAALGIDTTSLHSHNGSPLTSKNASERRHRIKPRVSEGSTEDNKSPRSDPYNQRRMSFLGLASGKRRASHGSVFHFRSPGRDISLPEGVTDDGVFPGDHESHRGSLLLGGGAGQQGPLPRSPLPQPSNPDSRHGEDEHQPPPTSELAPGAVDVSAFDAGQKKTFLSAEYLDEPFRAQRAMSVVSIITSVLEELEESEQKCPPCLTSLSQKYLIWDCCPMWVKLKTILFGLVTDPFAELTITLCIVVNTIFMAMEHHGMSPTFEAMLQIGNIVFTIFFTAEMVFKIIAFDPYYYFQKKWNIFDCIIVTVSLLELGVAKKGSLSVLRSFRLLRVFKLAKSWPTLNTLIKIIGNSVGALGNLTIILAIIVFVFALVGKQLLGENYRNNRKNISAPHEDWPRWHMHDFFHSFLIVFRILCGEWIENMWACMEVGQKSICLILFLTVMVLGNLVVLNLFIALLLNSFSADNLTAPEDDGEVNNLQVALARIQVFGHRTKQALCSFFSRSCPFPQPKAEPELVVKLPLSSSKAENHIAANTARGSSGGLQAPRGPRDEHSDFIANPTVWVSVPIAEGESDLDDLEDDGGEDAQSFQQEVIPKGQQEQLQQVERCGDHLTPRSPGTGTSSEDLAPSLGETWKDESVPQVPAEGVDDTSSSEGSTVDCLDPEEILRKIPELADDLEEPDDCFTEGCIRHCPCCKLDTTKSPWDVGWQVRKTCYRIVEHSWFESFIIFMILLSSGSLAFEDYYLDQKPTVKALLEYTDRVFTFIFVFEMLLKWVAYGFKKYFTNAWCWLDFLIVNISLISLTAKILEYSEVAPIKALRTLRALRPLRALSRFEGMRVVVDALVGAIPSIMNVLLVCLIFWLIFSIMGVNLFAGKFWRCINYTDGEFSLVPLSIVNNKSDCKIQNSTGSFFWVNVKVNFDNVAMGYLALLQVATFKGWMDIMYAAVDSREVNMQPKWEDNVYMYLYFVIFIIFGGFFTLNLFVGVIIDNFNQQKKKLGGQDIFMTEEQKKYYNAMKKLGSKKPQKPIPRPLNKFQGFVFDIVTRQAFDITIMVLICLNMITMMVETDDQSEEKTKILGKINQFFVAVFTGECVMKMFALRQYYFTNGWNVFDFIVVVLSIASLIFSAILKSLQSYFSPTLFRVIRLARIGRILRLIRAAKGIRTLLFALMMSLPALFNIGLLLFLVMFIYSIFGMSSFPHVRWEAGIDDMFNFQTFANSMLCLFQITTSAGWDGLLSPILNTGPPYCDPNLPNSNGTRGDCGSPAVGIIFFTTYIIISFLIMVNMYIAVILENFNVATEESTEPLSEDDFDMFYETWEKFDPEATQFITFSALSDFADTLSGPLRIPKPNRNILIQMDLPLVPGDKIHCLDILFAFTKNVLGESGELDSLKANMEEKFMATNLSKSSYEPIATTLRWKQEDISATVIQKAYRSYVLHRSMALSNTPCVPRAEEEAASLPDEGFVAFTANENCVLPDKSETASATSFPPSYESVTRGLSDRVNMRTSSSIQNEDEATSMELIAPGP

[2] = HEK293 cells stably expressing recombinant human Nav1.7, veratridine + scorpion venom depolarization
[3] = OA dose 30 mg/kg, rat, 20 days following MIA injection, hind limb grip force
[4] = SNL dose 100 mg/kg, rat, von Frey paw withdrawal threshold
[5] = rat, 20 days following MIA injection, hind limb grip force
[6] = HEK293 cells stably expressing recombinant human Nav1.8, veratridine + scorpion venom depolarization

Compound | IC50 (recombinant human Nav1.7; [2]) | inhibition in vivo at 30 mg/kg (osteoarthritic rats; [3]) | inhibition in vivo at 10 mg/kg (osteoarthritic rats; [5]) | IC50 (recombinant human Nav1.8; [6]) | further results
O=C(c1ccc2cc(Oc3ccc(C(F)(F)F)cn3)ccc2n1)N1CC[C@@H](F)C1 [Example 52, [(3R)-3-fluoropyrrolidin-1-yl](6-{[5-(trifluoromethyl)pyridin-2-yl]oxy}quinolin-2-yl)methanone] | 2.98 µM | 86% | – | – | inhibition in vivo at 100 mg/kg [1, 4]: 81%
O=C(c1ccc2cc(Oc3ccc(C(F)(F)F)cn3)ccc2n1)N1CCC(F)C1 (stereo not drawn) [Example 35, (3-fluoropyrrolidin-1-yl)(6-{[5-(trifluoromethyl)pyridin-2-yl]oxy}quinolin-2-yl)methanone] | 1.27 µM | – | 79% | – | inhibition in vivo at 100 mg/kg [1, 4]: 74%
O=C(c1ccc2cc(Oc3ccc(C(F)(F)F)cn3)ccc2n1)N1CCCC1 [Example 10, pyrrolidin-1-yl(6-{[5-(trifluoromethyl)pyridin-2-yl]oxy}quinolin-2-yl)methanone] | – | – | – | – | inhibition in vivo at 30 mg/kg (osteoarthritic rats): 48%; inhibition in vivo at 100 mg/kg ([1]; Rattus norvegicus): 35%
O=C(NCC(F)(F)F)c1ccc2cc(Oc3ccc(C(F)F)cn3)ccc2n1 [Example 436, 6-{[5-(difluoromethyl)pyridin-2-yl]oxy}-N-(2,2,2-trifluoroethyl)quinoline-2-carboxamide] | 1.74 µM | 51% | – | 3.42 µM | –
COCCNC(=O)c1ccc2cc(Oc3ccc(C(F)(F)F)nc3)ccc2n1 [Example 56, N-(2-methoxyethyl)-6-{[6-(trifluoromethyl)pyridin-3-yl]oxy}quinoline-2-carboxamide] | 3.01 µM | – | 43% | 1.49 µM | –
CC1(NC(=O)c2ccc3cc(Oc4ccc(C(F)(F)F)cn4)ccc3n2)COC1 [Example 48, N-(3-methyloxetan-3-yl)-6-{[5-(trifluoromethyl)pyridin-2-yl]oxy}quinoline-2-carboxamide] | 4.43 µM | – | 41% | 0.774 µM | –
O=C(c1ccc2cc(Oc3ccc(C(F)F)cn3)ccc2n1)N1CCNCC1 [Example 14, (6-{[5-(difluoromethyl)pyridin-2-yl]oxy}quinolin-2-yl)(piperazin-1-yl)methanone] | – | 81% | – | – | inhibition in vivo at 100 mg/kg [1, 4]: 44%
CC[C@@H]1CN(C(=O)c2ccc3cc(Oc4ccc(C(F)F)cn4)ccc3n2)CCN1 [Example 55, (6-{[5-(difluoromethyl)pyridin-2-yl]oxy}quinolin-2-yl)[(3R)-3-ethylpiperazin-1-yl]methanone] | 0.594 µM | – | 42% | – | IC50 (recombinant human Nav1.8): 2.08 µM
O=C(c1ccc2cc(Oc3ccc(C(F)(F)F)cn3)ccc2n1)N1CC(OCC(F)F)C1 [Example 619, [3-(2,2-difluoroethoxy)azetidin-1-yl](6-{[5-(trifluoromethyl)pyridin-2-yl]oxy}quinolin-2-yl)methanone] | 2.88 µM | 53% | – | 2.91 µM | –
O=C(c1ccc2cc(Oc3ccc(OC(F)(F)F)cn3)ccc2n1)N1CC[C@@H](F)C1 [Example 301, [(3R)-3-fluoropyrrolidin-1-yl](6-{[5-(trifluoromethoxy)pyridin-2-yl]oxy}quinolin-2-yl)methanone] | 3.12 µM | 58% | – | 1.4 µM | –
COC[C@@H]1CN(C(=O)c2ccc3cc(Oc4ccc(C(F)(F)F)nc4)ccc3n2)CCN1 [Example 64, [(3S)-3-(methoxymethyl)piperazin-1-yl](6-{[6-(trifluoromethyl)pyridin-3-yl]oxy}quinolin-2-yl)methanone] | 0.382 µM | – | 29% | – | IC50 (recombinant human Nav1.8): 0.491 µM
CN1CC(NC(=O)c2ccc3cc(Oc4ccc(C(F)(F)F)cn4)ccc3n2)CC1=O (single isomer, unassigned) [Example 74, N-[(3S*)-1-methyl-5-oxopyrrolidin-3-yl]-6-{[5-(trifluoromethyl)pyridin-2-yl]oxy}quinoline-2-carboxamide] | 0.863 µM | – | – | 1.88 µM | OA MPE (osteoarthritic rats; [3]): 69%
C[C@@H]1CN(C(=O)c2ccc3cc(Oc4ccc(C(F)(F)F)nc4)ccc3n2)CCN1 [Example 62, [(3R)-3-methylpiperazin-1-yl](6-{[6-(trifluoromethyl)pyridin-3-yl]oxy}quinolin-2-yl)methanone] | 0.5 µM | – | -1% | 0.12 µM | –
O=C1C[C@@H](NC(=O)c2ccc3cc(Oc4ccc(C(F)(F)F)cn4)ccc3n2)CN1 [Example 58, N-[(3R)-5-oxopyrrolidin-3-yl]-6-{[5-(trifluoromethyl)pyridin-2-yl]oxy}quinoline-2-carboxamide] | 1.03 µM | 64% | – | 2.84 µM | –
O=C(c1ccc2cc(Oc3ccc(C(F)(F)F)cn3)ccc2n1)N1CCN(C2CCC2)CC1 [Example 47, (4-cyclobutylpiperazin-1-yl)(6-{[5-(trifluoromethyl)pyridin-2-yl]oxy}quinolin-2-yl)methanone] | – | – | 30% | 0.334 µM | IC50 (recombinant human Nav1.7): 1.42 µM
O=C(c1ccc2cc(Oc3ccc(C(F)(F)F)cn3)ccc2n1)N1CCC12COC2 [Example 505, 6-oxa-1-azaspiro[3.3]hept-1-yl(6-{[5-(trifluoromethyl)pyridin-2-yl]oxy}quinolin-2-yl)methanone] | 4.94 µM | – | – | 2.3 µM | inhibition in vivo at 30 mg/kg (osteoarthritic rats): 52%
CCN1CC(NC(=O)c2ccc3cc(Oc4ccc(C(F)F)cn4)ccc3n2)CC1=O (stereo not drawn) [Example 46, 6-{[5-(difluoromethyl)pyridin-2-yl]oxy}-N-(1-ethyl-5-oxopyrrolidin-3-yl)quinoline-2-carboxamide] | 0.344 µM | 98% | – | 0.501 µM | –
O=C(c1ccc2cc(Oc3ccc(C(F)(F)F)cn3)ccc2n1)N1CCNCC1 [Example 1, piperazin-1-yl(6-{[5-(trifluoromethyl)pyridin-2-yl]oxy}quinolin-2-yl)methanone] | – | 64% | – | – | inhibition in vivo at 100 mg/kg [1, 4]: 49%
O=C(c1ccc2cc(Oc3ccc(C(F)(F)F)cn3)ccc2n1)N1CCN(CCO)CC1 [Example 28, [4-(2-hydroxyethyl)piperazin-1-yl](6-{[5-(trifluoromethyl)pyridin-2-yl]oxy}quinolin-2-yl)methanone] | 3.06 µM | – | 16% | 4.22 µM | –
O=C(c1ccc2cc(Oc3ccc(C(F)(F)F)cn3)ccc2n1)N1CC(N2CC[C@@H](F)C2)C1 [Example 70, {3-[(3R)-3-fluoropyrrolidin-1-yl]azetidin-1-yl}(6-{[5-(trifluoromethyl)pyridin-2-yl]oxy}quinolin-2-yl)methanone] | – | – | 23% | – | IC50 (recombinant human Nav1.7): 1.25 µM; IC50 (recombinant human Nav1.8): 0.821 µM
CC1CN(C(=O)c2ccc3cc(Oc4ccc(C(F)F)cn4)ccc3n2)CC(C)N1 (stereo not drawn) [Example 67, (6-{[5-(difluoromethyl)pyridin-2-yl]oxy}quinolin-2-yl)(3,5-dimethylpiperazin-1-yl)methanone] | 1.28 µM | – | 43% | 1.75 µM | –
O=C(c1ccc2cc(Oc3ccc(C(F)(F)F)cn3)ccc2n1)N1CCNC(C(F)(F)F)C1 (stereo not drawn) [Example 20, [3-(trifluoromethyl)piperazin-1-yl](6-{[5-(trifluoromethyl)pyridin-2-yl]oxy}quinolin-2-yl)methanone] | 10.5 µM | – | 24% | 3.23 µM | –
